{
  "source": "patent US11304958B2",
  "about": "“Multidentate phenanthridine-containing ligand frameworks and their planar monofunctional platinum complexes for cancer treatment” (UNIVERSITY OF MANITOBA, priority 2018, dated 2022)",
  "key": {"[1]": {"system": "A2780cis (cisplatin resistant) ovarian cancer cell line", "assay": "MTT cytotoxicity assay, A2780cis ovarian cancer cells", "assay_type": "cell-based, human", "conditions": "for resistance factor RF = IC50(A2780cis)/IC50(A2780): ovarian cancer cell lines, FIG. 14B", "excerpt": "(§1) In addition, neither the 4-aminophenanthridine precursors nor the proligands L1 or L2 themselves are effective in the absence of platinum(II). As noted above, intercalation enhances covalent binding and ultimately boosts the number of complex-DNA adducts observed for phenanthriplatin, but only when these two processes are simultaneous (30). Phenanthridines in general are anticipated to interact with DNA via an intercalation mechanism, similar to the mechanism of operation of the DNA stain ethidium bromide, of which phenanthridine forms the molecular core (19). […] The differing profile compared to cisplatin (i.e., higher in vitro efficacy and lower cross-resistance) implies a different mechanism of operation from cisplatin, which, considering to the planar structure of 1 and 2 compared to phenanthriplatin (10) likely involves some degree of intercalation. The higher efficacy for 2 (R═CF3) vs 1 (R=tBu) highlights the opportunity to fine-tune biological activity via ligand backbone substitution.\n(§2) Cisplatin and phenanthriplatin were used as controls. Cancer and normal cells were treated for 72 h and cell viability was assessed.\n(§3) In addition, neither the phenanthridinyl amines (2-R) nor the ligand itself (L2) are effective in the absence of platinum(II). While not wishing to be bound or limited to a particular theory or hypothesis, it is believed that substituted phenanthridines interact with DNA via an intercalation mechanism, similar to the mechanism of operation of the DNA stain ethidium bromide (19). […] The differing profile compared to cisplatin (i.e., higher in vitro efficacy and lower cross-resistance) implies a different mechanism of operation from cisplatin, which, considering to the planar structure of NNOPt compared to phenanthriplatin (10) likely involves some degree of intercalation. The higher efficacy for 2 (R═CF3) vs 1 (R=tBu) highlights the opportunity to fine-tune biological activity via ligand backbone substitution.\n(§4) Cell line: A2780 (ovarian cells), A2780cis (ovarian cells, drug resistant)\n(§5) RPMI medium: 10% FBS, 1% PS, 89% RPMI 1×, with L-glutamine\n(§6) MTT (5 mg/MI Thiazolyl Blue tetrazolium bromide in PBS)\n(§7) A volume of 100 μL of RPMI medium (10% FBS, 1% PS, 89% RPMI 1×, with L-glutamine) containing 2000 cells was seeded in each well of a 96-well microplate, and incubated for 24 h at 37° C. under 5% CO2. After 24 h, a volume of 50 μL of media containing the new compounds of different concentrations was added to the well. The drug-treated cells were incubated for 72 h at 37° C. with 5% CO2. A volume of 30 μL media containing MTT was added into each well, and incubated for 2-4 h at 37° C. with 5% CO2. MTT would be reduced to formazan in living cells.\n(§8) Following this, the media were removed carefully by aspiration and 200 μL DMSO was added into each well. The DMSO is used to dissolve the insoluble formazan into a purple solution. The 96-well microplate with DMSO was then shaken for 10 min at room temperature. Final results were obtained by using a microplate reader to examine the absorbance at 562 nm. Analysis of the data was carried out using Origin™.\n(§9) A2780 and A2780cis cell lines were cultured in RPM11640 with L-glutamine supplemented with 10% FBS and 1% PS. SKOV-3, MDA-MB-231, A549, and HEK293 cell line were cultured in DMEM 1 g/L glucose, with L-glutamine & sodium pyruvate supplemented with 10% FBS and 1% PS. MET5A cell line was cultured in M199 supplemented with 10% FBS, 1% PS, insulin, 0.1% Trace Elements B, […] Hydrocortisone, and 4 ng/mL EGF. All cell lines were incubated at 37° C. under an atmosphere containing 5% CO2. Cells were passaged by trypsinization and split in a 1:5 ratio."}, "[2]": {"system": "A2780 (cisplatin sensitive) ovarian cancer cell line", "assay": "MTT cytotoxicity assay, A2780 ovarian cancer cells", "assay_type": "cell-based, human", "conditions": "for IC50: 72 h; for in vitro cytotoxic activity in the absence of platinum(II): A2780 and A2780cis cell lines", "excerpt": "as §1, §3, §4, §5, §6, §7, §8, §9"}, "Human Cancer Cells": {"system": "Human Cancer Cells", "conditions": "reportedly, ref. (9); cited from earlier work"}, "[3]": {"system": "non-cancerous mesothelial cell line MET-5A", "assay": "Cytotoxicity screening against normal cells, MET-5A", "assay_type": "cell-based, human", "conditions": "72 h, compared with phenanthriplatin", "protocol": "as §2, §7, §8\n(§10) A2780 and A2780cis cell lines were cultured in RPM11640 with L-glutamine supplemented with 10% FBS and 1% PS. SKOV-3, MDA-MB-231, A549, and HEK293 cell line were cultured in DMEM 1 g/L glucose, with L-glutamine & sodium pyruvate supplemented with 10% FBS and 1% PS. […]"}, "[4]": {"system": "non-cancerous kidney cell line HEK293", "assay": "Cytotoxicity screening against normal cells, HEK293", "assay_type": "cell-based, human", "conditions": "72 h, compared with phenanthriplatin", "protocol": "as §2, §7, §8, §10"}, "[5]": {"conditions": "Homo sapiens, A2780cis, preliminary cytotoxicity data, MTT, 72 h, read-out: A2780cis IC50"}, "[6]": {"conditions": "Homo sapiens, A2780, preliminary cytotoxicity data"}, "[7]": {"conditions": "preliminary cytotoxicity data, MTT, 72 h, read-out: A2780cis IC50"}, "[8]": {"conditions": "further screening (FIG. 14A), treated for 72 h, read-out: IC50 in A2780cis cisplatin-resistant ovarian cancer cell line"}},
  "note": "Like-named read-outs stand apart in the source and are kept apart here.",
  "data": [
    {"molecule": "Nc1cc(C(F)(F)F)cc2c1ncc1ccccc12", "note": "[Complex 2-CF3, 2-trifluoromethyl-4-aminophenanthridine]", "values": [
      {"measurement": "IC50", "setting": "[1]; [5]", "result": "> 100", "unit": "µM"},
      {"measurement": "IC50", "setting": "[2]; [6]", "result": "19.3 ± 12.1", "unit": "µM"}
    ]},
    {"molecule": "CC(C)(C)c1cc(N)c2ncc3ccccc3c2c1", "note": "[Complex 2-tBu, 2-tert-butyl-4-aminophenanthridine]", "values": [
      {"measurement": "IC50", "setting": "[1]; [5]", "result": "20.5 ± 6.07", "unit": "µM"},
      {"measurement": "IC50", "setting": "[2]; [6]", "result": "8.38 ± 2.83", "unit": "µM"}
    ]},
    {"molecule": "CC(=O)C=C(C)Nc1cc(C(C)(C)C)cc2c1ncc1ccccc12", "note": "[Complex L1, 4-(2′-tert-butyl-4-aminophenanthridinyl)-3-penten-2-one]", "values": [
      {"measurement": "in vitro cytotoxic activity in the absence of platinum(II)", "setting": "[2]", "result": "lack of activity"}
    ]},
    {"molecule": "CC(=O)C=C(C)Nc1cc(C(F)(F)F)cc2c1ncc1ccccc12", "note": "[Complex L2, 4-(2′-trifluoromethyl-4′-aminophenanthridinyl)-3-penten-2-one]", "values": [
      {"measurement": "IC50", "setting": "[1]; [7]", "result": "20.1 ± 7.17", "unit": "µM"},
      {"measurement": "in vitro cytotoxic activity in the absence of platinum(II)", "setting": "[2]", "result": "lack of activity"},
      {"measurement": "IC50", "setting": "[2]; preliminary cytotoxicity data", "result": "7.22 ± 2.07", "unit": "µM"}
    ]},
    {"molecule": "N.N.[Cl][Pt][Cl]", "note": "[cisplatin, cis-diaminedichloroplatinum(II), reference compound]", "values": [
      {"measurement": "IC50", "setting": "[1]; [8]", "result": "32.9 ± 8.82", "unit": "µM"},
      {"measurement": "resistance factor RF = IC50(A2780cis)/IC50(A2780)", "setting": "[1]", "result": 23},
      {"measurement": "IC50", "setting": "[1]; [7]", "result": "7.76 ± 0.497", "unit": "µM"},
      {"measurement": "IC50", "setting": "[2]; preliminary cytotoxicity data", "result": "0.375 ± 0.217", "unit": "µM"}
    ]},
    {"molecule": "N.N.O=[N+]([O-])[O-].[Cl][Pt+].c1ccc2c(c1)cnc1ccccc12", "note": "[phenanthriplatin, [c/s-R(NH3)2(phenanthridine)Cl][NO3], reference compound]", "values": [
      {"measurement": "resistance factor RF = IC50(A2780cis)/IC50(A2780)", "setting": "[1]", "result": 2.7}
    ]},
    {"molecule": "N.N.O=[N+]([O-])[O-].[Cl][Pt+].c1ccncc1", "note": "[pyriplatin, [c/s-R(NH3)2(pyridine)Cl][NO3]]", "values": [
      {"measurement": "potency relative to cisplatin or oxaliplatin", "setting": "Human Cancer Cells", "result": "ten-fold less potent"}
    ]},
    {"molecule": "[Pt(CF3-phenanthridinenacac)Cl] [Complex 2]", "values": [
      {"measurement": "toxicity against normal cells (MET-5A)", "setting": "[3]", "result": "less toxic than phenanthriplatin"},
      {"measurement": "IC50 times lower than that of cisplatin", "setting": "[1]; A2780cis, 72 h", "result": 58, "unit": "times"},
      {"measurement": "IC50", "setting": "[1]; [8]", "result": "0.55 ± 0.22", "unit": "µM"},
      {"measurement": "resistance factor RF = IC50(A2780cis)/IC50(A2780)", "setting": "[1]", "result": 1.1},
      {"measurement": "IC50", "setting": "[1]; [7]", "result": "0.955 ± 0.106", "unit": "µM"},
      {"measurement": "toxicity against normal cells (HEK293)", "setting": "[4]", "result": "less toxic than phenanthriplatin"},
      {"measurement": "IC50", "setting": "[2]; preliminary cytotoxicity data", "result": "0.341 ± 0.112", "unit": "µM"}
    ]},
    {"molecule": "[Pt(tBu-phenanthridine-nacac)Cl] [Complex 1]", "values": [
      {"measurement": "IC50", "setting": "[1]; [7]", "result": "4.57 ± 1.41", "unit": "µM"},
      {"measurement": "IC50", "setting": "[2]; preliminary cytotoxicity data", "result": "2.81 ± 0.168", "unit": "µM"}
    ]}
  ]
}
